Experimental data taken from BindingDB's records for doi:10.1016/j.chembiol.2005.02.007 (Stanford University, 2005).

target: T1, Protein-glutamine gamma-glutamyltransferase 2 (Homo sapiens, UniProt P21980); experiment: TG Inhibition Assay; settings: pH 7.2
T1 sequence (P21980 whole entry): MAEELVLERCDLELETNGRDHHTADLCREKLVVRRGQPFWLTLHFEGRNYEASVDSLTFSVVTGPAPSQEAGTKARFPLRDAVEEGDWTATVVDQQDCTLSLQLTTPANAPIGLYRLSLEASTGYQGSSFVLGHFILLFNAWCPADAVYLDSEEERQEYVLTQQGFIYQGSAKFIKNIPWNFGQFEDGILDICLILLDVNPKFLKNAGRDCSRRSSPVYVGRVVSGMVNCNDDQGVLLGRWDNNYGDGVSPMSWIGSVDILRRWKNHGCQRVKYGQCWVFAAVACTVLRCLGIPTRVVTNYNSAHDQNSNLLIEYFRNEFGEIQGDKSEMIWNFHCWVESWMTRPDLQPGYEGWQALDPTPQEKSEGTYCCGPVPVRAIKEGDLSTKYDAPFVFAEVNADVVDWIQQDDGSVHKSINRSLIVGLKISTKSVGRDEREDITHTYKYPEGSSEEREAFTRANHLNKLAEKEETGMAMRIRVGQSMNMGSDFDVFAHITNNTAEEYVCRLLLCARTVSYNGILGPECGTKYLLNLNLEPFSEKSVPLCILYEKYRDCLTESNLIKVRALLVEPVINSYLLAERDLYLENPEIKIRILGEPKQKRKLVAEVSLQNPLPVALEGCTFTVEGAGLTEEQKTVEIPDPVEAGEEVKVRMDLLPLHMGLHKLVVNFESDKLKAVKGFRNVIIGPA
Text: Recombinant of human TG2 was expressed in E.coli and purified to >90% homogeneity.

| Ki | SMILES |
| --- | --- |
| 310 µM | O=C(N[C@@H](Cc1c[nH]c2ccc(O)cc12)C(=O)NCC1CC(Br)=NO1)OCc1ccccc1 (some centres undefined) [Dihydroisoxazole, 1f] |
| 61 µM | O=C(N[C@@H](Cc1ccccc1)C(=O)NCC1CC(Br)=NO1)OCCc1ccccc1 (some centres undefined) [Dihydroisoxazole, 3d] |
| 43 µM | O=C(N[C@@H](Cc1ccccc1)C(=O)NCC1CC(Br)=NO1)Oc1ccc2ccccc2c1 (some centres undefined) [Dihydroisoxazole, 3e] |
| 87 µM | O=C(N[C@@H](Cc1ccccc1)C(=O)NCC1CC(Br)=NO1)OCC1=Cc2ccccc2S1(=O)=O (some centres undefined) [Dihydroisoxazole, 3f] |
